In PubChem BioAssay (NCI) one finds TGI and GI50 data, which are given here for 16 molecules.

Test systems include COLO 205 colon; K-562 leukemia; KM12 colon; RXF 393 renal; SF-268 CNS; SK-MEL-28 melanoma; HT29 colon; NCI/ADR-RES ovarian; OVCAR-5 ovarian.
Common to all, as to assay: NCI-60 cell line screen, 48 h

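48-hour exposure; five concentrations; linearly interpolated endpoints. GI50 is the concentration that inhibits growth by half. At the TGI there is no net growth.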

For `CCCC(Sc1ccccc1)P(=O)(c1ccccc1)c1ccccc1` (stereo not given), the TGI with COLO 205 colon, in the assay on K-562 leukemia, in the assay with KM12 colon, in the assay on RXF 393 renal, with SF-268 CNS and with SK-MEL-28 melanoma was > 100 µM in each case.

Consider `COc1ccc(-c2nn(-c3cccc(Cl)c3)cc2-c2cc(-c3ccccc3)nc(N)n2)cc1`, for which the GI50 with COLO 205 colon was 2.09 µM; in the assay with HT29 colon it was 2.07 µM; in the assay with K-562 leukemia it was 1.92 µM; with KM12 colon, 2.05 µM; with NCI/ADR-RES ovarian, 8.72 µM; with OVCAR-5 ovarian it was 2.94 µM. The values for the GI50 with RXF 393 renal, in the assay with SF-268 CNS and in the assay on SK-MEL-28 melanoma were 2.64 µM, 3.76 µM and 12.4 µM, respectively. Further, the TGI amounted to 3.81 µM in the assay on COLO 205 colon; 4.32 µM with HT29 colon; 5.37 µM in the assay with K-562 leukemia; 4.39 µM in the assay on KM12 colon; 31 µM in the assay on NCI/ADR-RES ovarian; 11 µM in the assay on OVCAR-5 ovarian. The TGI was 8.47 µM with RXF 393 renal, 18.9 µM with SF-268 CNS and 42.1 µM in the assay on SK-MEL-28 melanoma.

With `C1CCOC2(CCC3(CC2)OCCCCO3)OC1`, the TGI in the assay on COLO 205 colon, with K-562 leukemia, with KM12 colon, in the assay with RXF 393 renal, in the assay with SF-268 CNS and in the assay on SK-MEL-28 melanoma was > 100 µM in each case.

For the molecule `CC(=O)NC1CC2Oc3ccc(C)cc3C(C)(O2)C1O` (stereo not given), the TGI in the assay on COLO 205 colon, in the assay on HT29 colon, with K-562 leukemia, in the assay with KM12 colon, in the assay on RXF 393 renal and in the assay with SK-MEL-28 melanoma was > 100 µM in each case.

Consider `C=C1CCC2[C@@H](CCC3[C@]2(C)CCC[C@]3(C)C(=O)OC)C1CCO` (stereo not given in full), for which the TGI was 27.9 µM with COLO 205 colon; 17.8 µM in the assay with HT29 colon; 26.1 µM with K-562 leukemia; 25.2 µM in the assay with KM12 colon; 33.2 µM in the assay on OVCAR-5 ovarian; 29.1 µM in the assay on SF-268 CNS. In the assay with SK-MEL-28 melanoma, the TGI was 28.1 µM.

As to `O=c1[nH]c(-c2ccc(-c3nc4cc([N+](=O)[O-])ccc4c(=O)[nH]3)cc2)nc2cc([N+](=O)[O-])ccc12`, the TGI with COLO 205 colon, with HT29 colon, in the assay on K-562 leukemia, in the assay with KM12 colon, in the assay on OVCAR-5 ovarian and with RXF 393 renal was > 100 µM each time. Also, in the assay with SK-MEL-28 melanoma, the TGI is > 100 µM.

Regarding `C/C=C/C=C/CCCCCCCCCCCCCC1(OC)C=CC(CC(=O)OC)OO1` (stereo not given), the GI50 was 1.76 µM in the assay on COLO 205 colon, 1.82 µM in the assay with HT29 colon, 1.56 µM in the assay with KM12 colon and 4.24 µM in the assay on RXF 393 renal. The TGI in the assay with COLO 205 colon was 3.19 µM; with HT29 colon, 3.43 µM; with K-562 leukemia, > 50.1 µM; in the assay on KM12 colon, 3.13 µM; in the assay with RXF 393 renal it was 15.3 µM; in the assay with SF-268 CNS, 34 µM. Besides, the TGI with SK-MEL-28 melanoma was 28.7 µM.

`C=CCC(OCCOCC)c1cc(OCCOCC)ccc1OC` (stereo not given): the TGI in the assay with COLO 205 colon, in the assay with HT29 colon, in the assay with K-562 leukemia, in the assay with KM12 colon, in the assay on OVCAR-5 ovarian and with RXF 393 renal was > 100 µM throughout. Also, the TGI with SF-268 CNS and with SK-MEL-28 melanoma was > 100 µM throughout.

As to `Cc1ccc(Sc2ccc(C)cc2[N+](=O)[O-])c([N+](=O)[O-])c1`, the TGI is > 100 µM in the assay with COLO 205 colon; > 10 µM with HT29 colon; > 100 µM in the assay on K-562 leukemia; > 100 µM in the assay with KM12 colon; > 100 µM in the assay on OVCAR-5 ovarian; > 100 µM with RXF 393 renal. For the same molecule, the TGI with SF-268 CNS and with SK-MEL-28 melanoma was > 100 µM in each case.

In the case of `O=C(Nc1nc(=S)c2c(ncn2CCO)[nH]1)c1ccccc1`, the TGI in the assay on COLO 205 colon, in the assay on HT29 colon, with K-562 leukemia, in the assay with KM12 colon, in the assay with OVCAR-5 ovarian and in the assay with RXF 393 renal was > 100 µM in each case. Besides, the TGI with SF-268 CNS is > 100 µM.

Turning to `COc1cc(C)c(O)c(C(=O)O)c1`, the TGI in the assay with COLO 205 colon, with HT29 colon, in the assay with K-562 leukemia, in the assay on KM12 colon, in the assay with OVCAR-5 ovarian and in the assay with RXF 393 renal was > 100 µM throughout. Further, the TGI in the assay on SF-268 CNS and with SK-MEL-28 melanoma was > 100 µM throughout.

As for `CCOC(=O)C1=C(Nc2cccc3ccccc23)OC/C1=N\NC(=O)c1ccccc1O`, the TGI in the assay on COLO 205 colon was 29.3 µM; with HT29 colon, > 88.5 µM; in the assay with K-562 leukemia, > 100 µM; with KM12 colon, > 100 µM; in the assay with OVCAR-5 ovarian it was > 100 µM; in the assay with RXF 393 renal it was > 37.5 µM. Further, the TGI in the assay with SF-268 CNS and in the assay on SK-MEL-28 melanoma was > 100 µM in each case.

Consider `COC(=O)C1=C(C(=O)OC)SC(=C(N=Nc2ccccc2)c2ccccc2)S1`, for which the TGI in the assay with COLO 205 colon, with HT29 colon, with K-562 leukemia, in the assay on KM12 colon, with OVCAR-5 ovarian and in the assay on SF-268 CNS was > 100 µM throughout. Besides, the TGI with SK-MEL-28 melanoma was > 100 µM.

As for `C=C1CCc2occ(C)c2C2C1C1=C(CC(C)C1=O)C1OC12C` (stereo not given), the TGI in the assay with COLO 205 colon, with HT29 colon, in the assay with K-562 leukemia, in the assay on KM12 colon, in the assay with OVCAR-5 ovarian and in the assay with RXF 393 renal was > 100 µM in each case. Also, the TGI in the assay with SF-268 CNS and in the assay with SK-MEL-28 melanoma was > 100 µM throughout.

For the molecule `CC1CCC(C(C)C)C(O[C@@H]2OC(=O)C[C@@H]2Sc2ccccc2)C1` (stereo not given in full), the TGI worked out at 36.8 µM with COLO 205 colon; 34.3 µM with HT29 colon; 42.6 µM in the assay on K-562 leukemia; 54.1 µM in the assay on KM12 colon; 65.5 µM in the assay with OVCAR-5 ovarian; 31.9 µM with RXF 393 renal. Moreover, the figures for the TGI in the assay with SF-268 CNS and in the assay on SK-MEL-28 melanoma were > 100 µM and 85.7 µM, respectively.

In the case of `O=C1c2ccccc2CC1C1(O)C(=O)Nc2ccccc21` (stereo not given), the TGI with COLO 205 colon, with HT29 colon, in the assay with K-562 leukemia, in the assay on OVCAR-5 ovarian, in the assay on RXF 393 renal and in the assay with SF-268 CNS was > 100 µM each time. Moreover, the TGI with SK-MEL-28 melanoma was > 100 µM.
